In experiment [1] the target is T1, human type 1 prolyl 4-hydroxylase tetramer (α12β2) (Homo sapiens, UniProt P13674).
T1 construct: made in house; host or cells: Spodoptera frugiperda Sf9 insect cells (baculovirus co-infection); 0.1% Triton X-100 extract
The experiment in a line: Prolyl 4-hydroxylase activity assay (decarboxylation of 2-oxo[1-14C]glutarate), type 1 enzyme. The class given is biochemical. The settings on record: α12β2, recombinant enzyme from insect cells, 0.1% Triton X-100 extract. How it is done:
(§1) A recombinant baculovirus coding for the mouse α2 subunit was generated and used to infect S. frugiperda insect cells with or without the human PDI/β subunit, wherein the insect cells were infected at a multiplicity of 5. For production of an enzyme tetramer, the human α59 1 (see, Vuori, et al., supra) or mouse α2 viruses and the PDI/β viruses (id.) were used in a 1:1 or 2:1 ratio. […] The resulting supematants were analyzed by SDS/8% PAGE or nondenaturing 7.5% PAGE and assayed for enzyme activities. The cell pellets were further solubilized in 1% SDS, and the 0.1% Triton X-100-soluble and 1% SDS-soluble proteins were analyzed by SDS/PAGE under reducing for the α1 subunit of prolyl 4-hydroxylase (Veijola et al., supra; Vuori et al., supra; John et al. […] The 0.1% Triton X-100 extracts from cell homogenates containing either the mouse-human type II or the human type I enzyme were analyzed for prolyl 4-hydroxylase activity with an assay based on the hydroxylation-coupled decarbosylation of 2-oxo[1^14C]glutarate (Kivirikko and Myllyla, supra).

The target in experiment [2] is T2, mouse/human type 2 prolyl 4-hydroxylase tetramer (α22β2) (Mus musculus, UniProt Q60716).
T2 construct: the cDNA clones, considered in combination, cover the whole coding region of the mouse α2 subunit; made in house; host or cells: Spodoptera frugiperda Sf9 insect cells (baculovirus pVL1392 construct, co-infection with PDI/β virus); 0.1% Triton X-100 extract
T2 sequence (Q60716 20-537 limits assumed): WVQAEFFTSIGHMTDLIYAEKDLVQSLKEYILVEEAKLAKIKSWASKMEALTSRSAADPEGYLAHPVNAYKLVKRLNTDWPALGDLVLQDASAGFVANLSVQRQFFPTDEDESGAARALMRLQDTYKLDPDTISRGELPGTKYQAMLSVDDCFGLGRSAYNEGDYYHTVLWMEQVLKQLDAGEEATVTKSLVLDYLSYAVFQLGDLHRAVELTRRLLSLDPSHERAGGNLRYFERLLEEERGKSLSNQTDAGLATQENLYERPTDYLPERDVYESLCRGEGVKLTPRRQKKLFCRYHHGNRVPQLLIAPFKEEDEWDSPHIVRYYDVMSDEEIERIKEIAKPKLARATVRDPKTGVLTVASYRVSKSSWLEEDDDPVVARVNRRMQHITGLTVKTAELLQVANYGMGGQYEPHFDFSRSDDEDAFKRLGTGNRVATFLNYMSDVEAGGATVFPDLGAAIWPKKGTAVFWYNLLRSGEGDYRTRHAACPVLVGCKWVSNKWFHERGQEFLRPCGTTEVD
T2 sequence (P07237 18-508 partner): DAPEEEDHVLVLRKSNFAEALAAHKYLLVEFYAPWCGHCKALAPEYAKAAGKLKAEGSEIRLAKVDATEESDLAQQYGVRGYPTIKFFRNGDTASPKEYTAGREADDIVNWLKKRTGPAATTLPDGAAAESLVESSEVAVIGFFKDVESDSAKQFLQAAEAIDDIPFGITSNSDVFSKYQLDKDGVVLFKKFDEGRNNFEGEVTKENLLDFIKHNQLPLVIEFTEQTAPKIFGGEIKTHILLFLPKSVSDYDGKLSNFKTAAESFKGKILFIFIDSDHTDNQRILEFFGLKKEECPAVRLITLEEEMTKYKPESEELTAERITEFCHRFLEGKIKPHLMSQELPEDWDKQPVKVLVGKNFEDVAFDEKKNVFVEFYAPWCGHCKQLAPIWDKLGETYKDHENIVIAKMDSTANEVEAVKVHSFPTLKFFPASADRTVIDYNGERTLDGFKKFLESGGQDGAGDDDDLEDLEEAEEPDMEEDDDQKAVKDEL
Nature of the experiment: Prolyl 4-hydroxylase activity assay (decarboxylation of 2-oxo[1-14C]glutarate), type 2 enzyme. The settings on record: for IC50: α22β2, footnote: values determined as IC50, read-out: Ki column, values determined as IC50. Type of experiment: biochemical. How it is done: as §1

Setting [3] is: α22β2 (mouse α2, human PDI/β), recombinant enzyme from insect cells.

Consider seven molecules from US20020177203A1, “Alpha2 subunit of prolyl 4-hydroxylase” (priority 1996, published 2002).

T1 sequence (P13674 18-534): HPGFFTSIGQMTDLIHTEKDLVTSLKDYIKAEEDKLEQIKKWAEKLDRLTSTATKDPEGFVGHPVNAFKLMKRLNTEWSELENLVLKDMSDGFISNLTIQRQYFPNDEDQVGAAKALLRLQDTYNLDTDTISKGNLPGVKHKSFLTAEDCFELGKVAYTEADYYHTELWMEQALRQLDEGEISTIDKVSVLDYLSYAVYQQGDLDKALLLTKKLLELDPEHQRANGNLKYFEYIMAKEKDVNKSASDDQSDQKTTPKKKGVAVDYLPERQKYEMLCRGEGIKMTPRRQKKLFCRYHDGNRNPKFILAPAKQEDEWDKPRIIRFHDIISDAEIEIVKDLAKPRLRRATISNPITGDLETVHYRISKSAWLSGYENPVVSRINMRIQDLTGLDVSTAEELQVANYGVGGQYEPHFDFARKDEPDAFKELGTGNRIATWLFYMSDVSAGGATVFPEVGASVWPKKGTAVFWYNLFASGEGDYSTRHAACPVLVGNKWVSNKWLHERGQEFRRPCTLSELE
T1 sequence (P07237 18-508 partner): as the sequence (P07237 18-508 partner) above

As to `O=C(O)CCC(=O)C(=O)O` [2-Oxoglutatrate, 2-oxoglutarate], the Km – broadly, the concentration of substrate that gives half-maximal velocity – in experiment [1] is 22 µM; in experiment [2] (setting [3]), 12 µM. As for `[Fe+2]` [Fe^2+], the Km in experiment [1] and in experiment [2] (setting [3]) was 4 µM each time. Take `O=C(O)c1ccnc(C(=O)O)c1` [Pyridine-2,4-dicarboxylate]: the inhibition constant Ki – broadly, the equilibrium dissociation constant of an inhibitor or competing ligand from its target – in experiment [1] amounted to 2 µM; in experiment [2] (setting [3]), 1 µM.

Take (Pro-Pro-Gly)10 [(Pro--Pro--Gly)]: the Km worked out at 18 µM in experiment [1] and 45 µM in experiment [2] (setting [3]).

Consider Poly(t-proline), Mt 44,000, for which, in experiment [1], the Ki came to 0.02 µM. Also, in experiment [2], the IC50 (in general, the concentration needed to halve the response being measured) was 30 µM. The like results for Poly(t-proline), Mt 7000 were, in that order, 0.5 µM and 300 µM. On to poly (L-proline), for which, in experiment [2] (type 2 enzyme compared with type 1), the “inhibition of the type 2 enzyme” value was “inhibited by poly (L-proline) only at very high concentrations”.
